Consider 5 molecules from PubChem BioAssay AID2060500 (Molecular Pharmacology Branch, DTP, NCI, 2025).

The test system of this assay is 596521-263-R-J1-PDC complex spheroids, viability % of control. As to the kind of experiment: Anticancer human tumor 596521-263-R-J1-PDC patient-derived soft tissue sarcoma cell line growth inhibition [GQUAD]. The following applies: for viability, T/C: stronger effect = lower value. The source says:
DNA G-quadruplex Stabilizer Agents in Combinations in Complex Spheroids
A high-throughput screen of multi-cell type tumor spheroids was designed to identify active combinations of DNA G-quadruplex stabilizer agents and targeted small molecules. Complex spheroids include a stromal component modeled by human endothelial cells (HUVEC) and fibroblasts modeled by human mesenchymal stem cells (MSCs). The concentration ranges selected for each drug and investigational agent were based upon clinically achievable concentrations if the clinical Cmax of the agent was known.
Compounds. The drugs and investigational agents: pidnarulex (CX-5461; NSC782164), APTO-253 (NSC789042), BRACO-19 (NSC847499), peposertib (NSC802822), ceralasertib (NSC780249), elimusertib (NSC800525), camonsertib (NSC841442), AZD-1390 (NSC803789), olaparib (NSC753686), talazoparib (NSC767125), ART-558 (NSC835418), sotorasib (NSC818433), MRTX-1133 (NSC836407), SN-38 (NSC673596), topotecan (NSC609699), etoposide (NSC141540), doxorubicin (NSC123127), gemcitabine (NSC613327), 5-fluorouracil (NSC19893), paclitaxel (NSC125973), vemurafenib (NSC761431), panobinostat (NSC761190), R-306465 (JNJ-16241199; NSC773264), adavosertib (NSC754352), TP-3654 (NSC805149), carboplatin (NSC241240), KSQ-4279 (NSC840948), and staurosporine (NSC755774) were obtained from the National Cancer Institute (NCI) Developmental Therapeutics Program Chemical Repository (34). The FDA-approved anticancer drug set is available from the NCI Developmental Therapeutics Program. […] The stock solutions were prepared in dimethyl sulfoxide (DMSO, Sigma-Aldrich, St. Louis, MO, cat. D2650) at 800-fold the tested concentration and stored at -70 degrees C prior to their use. All drugs and investigational agents were tested over a range starting from a high concentration at or near the clinical Cmax and decreasing in half-log increments. If the clinical Cmax for an agent had not been determined, the highest concentration tested was 10 microM.
2.3 Cell Culture. All cells were maintained in an incubator at 37 degrees C and 5% CO2 with 95% humidity. The PDC lines were cultured according to standard operating procedures established by the NCI PDMR. All PDCs were thawed and cultured in Matrigel-coated flasks prepared with a working solution of 1X Ham's F-12 nutrient mix, without supplementation (Invitrogen, cat. 11765054), 100 U/mL penicillin-streptomycin (Invitrogen, cat. 15140122), and 2.5% Matrigel (Corning Inc., cat. 354248) for the first three passages. The 857933-349-R-J2-PDC line was cultured in 6C/Colon 1B media, which includes advanced DMEM/F-12 (Thermo Fisher Scientific, cat. 12634028), 10 mM HEPES (Thermo Fisher Scientific, cat. 15630080), 1X GlutaMAX supplement (Thermo Fisher Scientific, cat. 35050061), 0.1 mg/mL primocin (InvivoGen, cat. ant-pm-2), 10% defined fetal bovine serum, heat inactivated (HyClone Laboratories Inc., cat. SH30070.03HI), 50% L-WRN conditioned media (ATCC, cat. CRL-3276), 1.25 mM N-Acetyl-L-cysteine (Sigma-Aldrich, cat. A9165), 10 mM nicotinamide (Sigma-Aldrich, cat. N0636), 1X B-27 supplement (Thermo Fisher Scientific, cat. 17504044), 1X N-2 supplement (Thermo Fisher Scientific, cat. 17502048), 10 microM Y-27632 dihydrochloride (Tocris Bioscience, cat. 1254), and 50 ng/mL human EGF recombinant protein (Thermo Fisher Scientific, cat. PHG0311). The 485176-168-R4-J1-PDC line was cultured in Panc media, which includes all 6C/Colon 1B media components plus 100 ng/mL human FGF-10 (Thermo Fisher Scientific, cat. 100-26), 500 nM SB-431542 (Selleckchem, cat. S1067), and gastrin (Tocris, cat. 3006).
[…]

Usually IC50 stands for the concentration needed to halve the response being measured. The viability, T/C is the result in the treated group divided by that in the control group, in per cent.

Where “and” joins values, the source holds several entries; their conditions need not be identical. Identical values can stand only once. Where only a bound is given, the exact number is not on record here.
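Note: spheroids exposed to drugs for 7 days before viability reading.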

`O=c1[nH]cc(F)c(=O)[nH]1` + Cc1cnc(CNC(=O)c2c(=O)c3ccc(N4CCCN(C)CC4)nc3n3c2sc2ccccc23)cn1: the IC50 is, setting by setting: (curve of first compound, second compound 0.0316 µM) over 10 µM; (curve of first compound, second compound 0.1 µM) over 10 µM; (curve of first compound, second compound 0.316 µM) over 10 µM; (curve of first compound, second compound 1 µM) over 10 µM; (curve of first compound, second compound 3.16 µM) over 10 µM; (curve of first compound, second compound 10 µM) under 0.0316 µM. The viability, T/C is 109% (second compound 0.0316 µM, first compound 0.0316 µM); 112% (second compound 0.0316 µM, first compound 0.1 µM); 100% (second compound 0.0316 µM, first compound 0.316 µM); 99.7% (second compound 0.0316 µM, first compound 1 µM); 111% (second compound 0.0316 µM, first compound 3.16 µM); 84.7% (second compound 0.0316 µM, first compound 10 µM). In addition, the viability, T/C reads like this: (second compound 0.1 µM, first compound 0.0316 µM) 100%; (second compound 0.1 µM, first compound 0.1 µM) 84.9%; (second compound 0.1 µM, first compound 0.316 µM) 89.4%; (second compound 0.1 µM, first compound 1 µM) 88.5%; (second compound 0.1 µM, first compound 3.16 µM) 104%; (second compound 0.1 µM, first compound 10 µM) 87.4%. For the same molecule, the viability, T/C runs as follows: (second compound 0.316 µM, first compound 0.0316 µM) 78.9%; (second compound 0.316 µM, first compound 0.1 µM) 82.8%; (second compound 0.316 µM, first compound 0.316 µM) 69.5%; (second compound 0.316 µM, first compound 1 µM) 72.5%; (second compound 0.316 µM, first compound 3.16 µM) 82.7%; (second compound 0.316 µM, first compound 10 µM) 76.7%. The viability, T/C is, setting by setting: (second compound 1 µM, first compound 0.0316 µM) 68.2%; (second compound 1 µM, first compound 0.1 µM) 66%; (second compound 1 µM, first compound 0.316 µM) 71.3%; (second compound 1 µM, first compound 1 µM) 72.2%; (second compound 1 µM, first compound 3.16 µM) 76%; (second compound 1 µM, first compound 10 µM) 69.9%. Further, the viability, T/C is 54.8% (second compound 3.16 µM, first compound 0.0316 µM); 59.9% (second compound 3.16 µM, first compound 0.1 µM); 51.3% (second compound 3.16 µM, first compound 0.316 µM); 49.8% (second compound 3.16 µM, first compound 1 µM); 63.2% (second compound 3.16 µM, first compound 3.16 µM); 51.4% (second compound 3.16 µM, first compound 10 µM). Further, the viability, T/C (second compound 10 µM, first compound 0.0316 µM) is 49%; the viability, T/C (second compound 10 µM, first compound 0.1 µM) was 49.6%; the viability, T/C (second compound 10 µM, first compound 0.316 µM) was 49.2%; the viability, T/C (second compound 10 µM, first compound 1 µM) is 49.4%; the viability, T/C (second compound 10 µM, first compound 3.16 µM) was 54.7%; the viability, T/C (second compound 10 µM, first compound 10 µM) was 47.6%.

Take `COc1ccc([C@@H](O)c2cc(-c3ncnc4cc(N5CCOCC5)ccc34)c(F)cc2Cl)nn1`: the viability, T/C is 102% and 104% and 98.4% (compound 0.0316 µM); 96.8% and 88% and 99.3% (compound 0.1 µM); 89.7% and 79.9% and 93.3% (compound 0.316 µM); 77.9% and 79.6% and 88.5% (compound 1 µM); 66.9% and 63.6% and 80% (compound 3.16 µM); 51% and 47.4% and 51.9% (compound 10 µM). Also, the IC50 (curve of compound) is > 10 µM and 9.83 µM.

`CC(C)(O)C1CCC(Nc2ccc3ncc(-c4cccc(C(F)(F)F)c4)n3n2)CC1` (stereo unspecified): the viability, T/C runs as follows: (compound 0.0316 µM) 106% and 99.4% and 95.7%; (compound 0.1 µM) 98.4% and 97.7% and 91.8%; (compound 0.316 µM) 103% and 93.5% and 85.9%; (compound 1 µM) 97.1% and 55.2% and 69.5%; (compound 3.16 µM) 108% and 10.6% and 16.7%; (compound 10 µM) 84% and 18.1% and 15.5%. Besides, the IC50 (curve of compound) was > 10 µM and 1.16 µM and 1.54 µM.

Regarding `Cc1[nH]c2ccc(F)cc2c1-c1nc2c3cccnc3c3ncccc3c2[nH]1`, the viability, T/C was 102% [middle of 12 runs] (compound 0.0316 µM); 102% [middle of 12 runs] (compound 0.1 µM); 101% [middle of 12 runs] (compound 0.316 µM); 101% [middle of 12 runs] (compound 1 µM); 93.6% [middle of 12 runs] (compound 3.16 µM); 85.7% [middle of 12 runs] (compound 10 µM). Further, the IC50 (compound alone, run of 04/16/2024) is over 10 µM and the half-inhibitory concentration (IC50) (compound alone, run of 04/22/2024) is over 10 µM.

With `C=CC(=O)N1CCN(c2nc(=O)n(-c3c(C)ccnc3C(C)C)c3nc(-c4c(O)cccc4F)c(F)cc23)C(C)C1` (stereo unspecified), the viability, T/C is, setting by setting: (compound 0.0316 µM) 107% and 105% and 114%; (compound 0.1 µM) 92.7% and 91.9% and 95.5%; (compound 0.316 µM) 96.9% and 101% and 108%; (compound 1 µM) 114% and 120% and 118%; (compound 3.16 µM) 96.2% and 97% and 113%; (compound 10 µM) 73.2% and 66.5% and 84.6%. Also, the IC50 (curve of compound) is over 10 µM.
